In ChEMBL document CHEMBL5338754, “Identification of Binding Sites in the Nucleotide-Binding Domain of P-Glycoprotein for a Potent and Nontoxic Modulator, the Amine-Containing Monomeric Flavonoid FM04” (J Med Chem, 2023):

Key:
[1] = biological target: T1, ATP-dependent translocase ABCB1 (Homo sapiens, UniProt P08183, Q1193N); assay: Activation of P-gp ATPase activity in human P-gp Q1193N mutant expressed in HEK293FT cell microsomes at 20 uM incubated for 1 hr in presence of ATP by Glo-luminescence based microplate reader assay (reference value: 0.34 +/- 0.05 pmol/min/microg); parameters: species or system Microsome
[2] = biological target: T2, ATP-dependent translocase ABCB1 (Homo sapiens, UniProt P08183, I1115A); assay: Negative allosteric modulator activity at human P-gp I1115A mutant expressed in HEK293FT cells assessed as increase in intracellular doxorubicin accumulation using doxorubicin as substrate at 1 uM incubated for 150 mins by microplate reader assay (reference value: 91.6 +/- 4.4 %); type: cell-based; conditions: 2.5 h
[3] = biological target: T3, ATP-dependent translocase ABCB1 (Homo sapiens, UniProt P08183, T1226W); assay: Negative allosteric modulator activity at human P-gp T1226W mutant expressed in HEK293FT cells assessed as increase in intracellular doxorubicin accumulation using doxorubicin as substrate at 1 uM incubated for 150 mins by microplate reader assay (reference value: 66.7 +/- 1.5 %); type: cell-based; conditions: 2.5 h
[4] = biological target: ATP-dependent translocase ABCB1 (Homo sapiens, UniProt P08183, Q1193T); assay: Negative allosteric modulator activity at human P-gp Q1193T mutant expressed in HEK293FT cells assessed as increase in intracellular doxorubicin accumulation using doxorubicin as substrate at 1 uM incubated for 150 mins by microplate reader assay (reference value: 65.5 +/- 0.9 %); type: cell-based; conditions: 2.5 h
[5] = biological target: T4, ATP-dependent translocase ABCB1 (Homo sapiens, UniProt P08183, G1114V); assay: Negative allosteric modulator activity at human P-gp G1114V mutant expressed in HEK293FT cells assessed as increase in intracellular doxorubicin accumulation using doxorubicin as substrate at 1 uM incubated for 150 mins by microplate reader assay (reference value: 102 +/- 2.6 %); type: cell-based; conditions: 2.5 h
[6] = biological target: ATP-dependent translocase ABCB1 (Homo sapiens, UniProt P08183, I1115N); assay: Negative allosteric modulator activity at human P-gp I1115N mutant expressed in HEK293FT cells assessed as increase in intracellular doxorubicin accumulation using doxorubicin as substrate at 1 uM incubated for 150 mins by microplate reader assay (reference value: 98.6 +/- 4.3 %); type: cell-based; conditions: 2.5 h
[7] = biological target: T2, ATP-dependent translocase ABCB1; assay: Negative allosteric modulator activity at human P-gp I1115A mutant expressed in HEK293FT cells assessed as fold change in intracellular doxorubicin accumulation using doxorubicin as substrate at 1 uM incubated for 150 mins by microplate reader assay relative to DMSO; type: cell-based; conditions: 2.5 h
[8] = biological target: T1, ATP-dependent translocase ABCB1; assay: Negative allosteric modulator activity at human P-gp Q1193N mutant expressed in HEK293FT cells assessed as increase in intracellular doxorubicin accumulation using doxorubicin as substrate at 1 uM incubated for 150 mins by microplate reader assay (reference value: 59.7 +/- 2.1 %); type: cell-based; conditions: 2.5 h
[9] = biological target: T3, ATP-dependent translocase ABCB1; assay: Negative allosteric modulator activity at human P-gp T1226W mutant expressed in HEK293FT cells assessed as reversal of P-gp mediated PTX resistance by measuring sensitivity fold change incubated for 5 days by MTS assay; type: cell-based; conditions: 120 h, time 5 day
[10] = biological target: ATP-dependent translocase ABCB1 (Homo sapiens, UniProt P08183, H1195A); assay: Negative allosteric modulator activity at human P-gp H1195A mutant expressed in HEK293FT cells assessed as increase in intracellular doxorubicin accumulation using doxorubicin as substrate at 1 uM incubated for 150 mins by microplate reader assay (reference value: 78.1 +/- 1.4 %); type: cell-based; conditions: 2.5 h
[11] = biological target: ATP-dependent translocase ABCB1 (Homo sapiens, UniProt P08183, I1115W); assay: Negative allosteric modulator activity at human P-gp I1115W mutant expressed in HEK293FT cells assessed as increase in intracellular doxorubicin accumulation using doxorubicin as substrate at 1 uM incubated for 150 mins by microplate reader assay (reference value: 98.4 +/- 1.3 %); type: cell-based; conditions: 2.5 h
[12] = biological target: ATP-dependent translocase ABCB1 (Homo sapiens, UniProt P08183, G1114I); assay: Negative allosteric modulator activity at human P-gp G1114I mutant expressed in HEK293FT cells assessed as increase in intracellular doxorubicin accumulation using doxorubicin as substrate at 1 uM incubated for 150 mins by microplate reader assay (reference value: 94.7 +/- 2.7 %); type: cell-based; conditions: 2.5 h
[13] = biological target: T5, ATP-dependent translocase ABCB1 (Homo sapiens, UniProt P08183, Q1193C); assay: Negative allosteric modulator activity at human P-gp Q1193C mutant expressed in HEK293FT cells assessed as increase in intracellular doxorubicin accumulation using doxorubicin as substrate at 1 uM incubated for 150 mins by microplate reader assay (reference value: 63 +/- 2.5 %); type: cell-based; conditions: 2.5 h
[14] = biological target: ATP-dependent translocase ABCB1 (Homo sapiens, UniProt P08183, T1226Y); assay: Negative allosteric modulator activity at human P-gp T1226Y mutant expressed in HEK293FT cells assessed as fold change in intracellular doxorubicin accumulation using doxorubicin as substrate at 1 uM incubated for 150 mins by microplate reader assay relative to DMSO; type: cell-based; conditions: 2.5 h
[15] = biological target: T5, ATP-dependent translocase ABCB1; assay: Activation of P-gp ATPase activity in human P-gp Q1193C mutant expressed in HEK293FT cell microsomes at 20 uM incubated for 1 hr in presence of ATP by Glo-luminescence based microplate reader assay (reference value: 0.45 +/- 0.04 pmol/min/microg); parameters: species or system Microsome
[16] = biological target: T4, ATP-dependent translocase ABCB1; assay: Negative allosteric modulator activity at human P-gp G1114V mutant expressed in HEK293FT cells assessed as fold change in intracellular doxorubicin accumulation using doxorubicin as substrate at 1 uM incubated for 150 mins by microplate reader assay relative to DMSO; type: cell-based; conditions: 2.5 h
[17] = biological target: T1, ATP-dependent translocase ABCB1; assay: Negative allosteric modulator activity at human P-gp Q1193N mutant expressed in HEK293FT cells assessed as fold change in intracellular doxorubicin accumulation using doxorubicin as substrate at 1 uM incubated for 150 mins by microplate reader assay relative to DMSO; type: cell-based; conditions: 2.5 h
[18] = biological target: ATP-dependent translocase ABCB1 (Homo sapiens, UniProt P08183, Q1193K); assay: Negative allosteric modulator activity at human P-gp Q1193K mutant expressed in HEK293FT cells assessed as increase in intracellular doxorubicin accumulation using doxorubicin as substrate at 1 uM incubated for 150 mins by microplate reader assay (reference value: 69.1 +/- 1 %); type: cell-based; conditions: 2.5 h
[19] = biological target: ATP-dependent translocase ABCB1 (Homo sapiens, UniProt P08183, T1226A); assay: Negative allosteric modulator activity at human P-gp T1226A mutant expressed in HEK293FT cells assessed as increase in intracellular doxorubicin accumulation using doxorubicin as substrate at 1 uM incubated for 150 mins by microplate reader assay (reference value: 89 +/- 4 %); type: cell-based; conditions: 2.5 h
[20] = biological target: ATP-dependent translocase ABCB1 (Homo sapiens, UniProt P08183, Q1193E); assay: Negative allosteric modulator activity at human P-gp Q1193E mutant expressed in HEK293FT cells assessed as fold change in intracellular doxorubicin accumulation using doxorubicin as substrate at 1 uM incubated for 150 mins by microplate reader assay relative to DMSO; type: cell-based; conditions: 2.5 h

T1 sequence (P08183 whole entry Q1193N): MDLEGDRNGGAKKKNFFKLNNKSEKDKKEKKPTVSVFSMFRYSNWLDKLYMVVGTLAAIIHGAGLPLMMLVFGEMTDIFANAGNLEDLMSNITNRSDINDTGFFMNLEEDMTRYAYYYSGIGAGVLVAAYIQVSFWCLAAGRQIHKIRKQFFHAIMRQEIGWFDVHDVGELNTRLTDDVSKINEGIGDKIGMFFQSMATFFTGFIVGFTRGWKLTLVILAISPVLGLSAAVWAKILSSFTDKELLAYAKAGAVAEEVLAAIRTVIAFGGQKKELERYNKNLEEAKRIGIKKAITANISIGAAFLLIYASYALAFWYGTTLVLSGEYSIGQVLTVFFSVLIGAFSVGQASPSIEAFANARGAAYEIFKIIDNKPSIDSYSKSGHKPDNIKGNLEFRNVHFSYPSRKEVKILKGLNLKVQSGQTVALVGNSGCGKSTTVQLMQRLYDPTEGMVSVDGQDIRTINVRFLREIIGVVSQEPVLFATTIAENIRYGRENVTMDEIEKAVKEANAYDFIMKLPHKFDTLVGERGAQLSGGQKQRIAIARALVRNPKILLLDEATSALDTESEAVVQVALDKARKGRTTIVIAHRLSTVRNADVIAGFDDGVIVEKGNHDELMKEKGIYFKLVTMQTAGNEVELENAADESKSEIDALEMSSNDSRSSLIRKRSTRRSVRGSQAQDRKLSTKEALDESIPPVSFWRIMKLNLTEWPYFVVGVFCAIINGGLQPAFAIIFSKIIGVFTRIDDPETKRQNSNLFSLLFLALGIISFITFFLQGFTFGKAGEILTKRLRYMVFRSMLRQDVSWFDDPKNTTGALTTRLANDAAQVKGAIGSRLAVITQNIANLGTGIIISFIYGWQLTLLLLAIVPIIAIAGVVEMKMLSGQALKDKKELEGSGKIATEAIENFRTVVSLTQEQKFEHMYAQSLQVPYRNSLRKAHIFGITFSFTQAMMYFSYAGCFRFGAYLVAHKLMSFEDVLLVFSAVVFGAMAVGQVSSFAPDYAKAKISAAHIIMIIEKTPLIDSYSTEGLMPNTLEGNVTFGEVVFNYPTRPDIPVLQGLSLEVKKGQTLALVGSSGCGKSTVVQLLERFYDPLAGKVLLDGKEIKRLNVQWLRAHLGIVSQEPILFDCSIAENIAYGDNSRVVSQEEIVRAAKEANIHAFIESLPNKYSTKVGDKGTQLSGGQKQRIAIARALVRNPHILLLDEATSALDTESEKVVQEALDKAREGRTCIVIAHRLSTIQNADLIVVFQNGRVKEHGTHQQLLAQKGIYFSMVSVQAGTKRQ
T3 sequence (P08183 whole entry T1226W): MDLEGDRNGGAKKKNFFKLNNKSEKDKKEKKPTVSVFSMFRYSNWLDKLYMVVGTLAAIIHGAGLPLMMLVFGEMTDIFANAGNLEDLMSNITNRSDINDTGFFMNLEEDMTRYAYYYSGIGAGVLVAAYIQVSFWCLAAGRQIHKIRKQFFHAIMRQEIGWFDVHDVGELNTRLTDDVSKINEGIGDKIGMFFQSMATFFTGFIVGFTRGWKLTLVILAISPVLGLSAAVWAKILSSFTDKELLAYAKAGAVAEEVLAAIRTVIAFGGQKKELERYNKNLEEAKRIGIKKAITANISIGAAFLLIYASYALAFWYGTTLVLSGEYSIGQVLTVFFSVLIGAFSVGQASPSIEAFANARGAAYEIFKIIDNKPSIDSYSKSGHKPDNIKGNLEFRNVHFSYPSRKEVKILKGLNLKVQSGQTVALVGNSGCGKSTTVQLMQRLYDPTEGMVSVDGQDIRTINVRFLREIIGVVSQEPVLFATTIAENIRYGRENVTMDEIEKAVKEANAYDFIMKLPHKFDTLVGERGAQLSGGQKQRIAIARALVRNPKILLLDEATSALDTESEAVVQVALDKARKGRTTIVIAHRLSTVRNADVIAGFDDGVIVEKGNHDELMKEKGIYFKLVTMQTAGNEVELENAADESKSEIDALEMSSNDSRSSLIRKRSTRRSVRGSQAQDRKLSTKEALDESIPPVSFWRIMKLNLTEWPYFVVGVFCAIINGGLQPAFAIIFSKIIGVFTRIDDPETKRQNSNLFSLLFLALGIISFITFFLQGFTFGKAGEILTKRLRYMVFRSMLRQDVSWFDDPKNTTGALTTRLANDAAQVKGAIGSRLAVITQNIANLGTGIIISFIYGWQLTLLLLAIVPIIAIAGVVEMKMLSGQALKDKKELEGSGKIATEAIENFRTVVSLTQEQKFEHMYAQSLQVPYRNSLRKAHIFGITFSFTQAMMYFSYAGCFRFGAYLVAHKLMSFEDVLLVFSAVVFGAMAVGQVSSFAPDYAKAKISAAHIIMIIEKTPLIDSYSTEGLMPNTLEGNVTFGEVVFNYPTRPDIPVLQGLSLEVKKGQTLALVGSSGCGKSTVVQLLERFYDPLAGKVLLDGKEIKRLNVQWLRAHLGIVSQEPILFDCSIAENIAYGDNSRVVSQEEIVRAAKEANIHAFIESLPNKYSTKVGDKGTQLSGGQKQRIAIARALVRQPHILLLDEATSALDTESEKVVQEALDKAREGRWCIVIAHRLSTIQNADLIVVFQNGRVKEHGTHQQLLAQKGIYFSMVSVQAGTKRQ
T2 sequence (P08183 whole entry I1115A): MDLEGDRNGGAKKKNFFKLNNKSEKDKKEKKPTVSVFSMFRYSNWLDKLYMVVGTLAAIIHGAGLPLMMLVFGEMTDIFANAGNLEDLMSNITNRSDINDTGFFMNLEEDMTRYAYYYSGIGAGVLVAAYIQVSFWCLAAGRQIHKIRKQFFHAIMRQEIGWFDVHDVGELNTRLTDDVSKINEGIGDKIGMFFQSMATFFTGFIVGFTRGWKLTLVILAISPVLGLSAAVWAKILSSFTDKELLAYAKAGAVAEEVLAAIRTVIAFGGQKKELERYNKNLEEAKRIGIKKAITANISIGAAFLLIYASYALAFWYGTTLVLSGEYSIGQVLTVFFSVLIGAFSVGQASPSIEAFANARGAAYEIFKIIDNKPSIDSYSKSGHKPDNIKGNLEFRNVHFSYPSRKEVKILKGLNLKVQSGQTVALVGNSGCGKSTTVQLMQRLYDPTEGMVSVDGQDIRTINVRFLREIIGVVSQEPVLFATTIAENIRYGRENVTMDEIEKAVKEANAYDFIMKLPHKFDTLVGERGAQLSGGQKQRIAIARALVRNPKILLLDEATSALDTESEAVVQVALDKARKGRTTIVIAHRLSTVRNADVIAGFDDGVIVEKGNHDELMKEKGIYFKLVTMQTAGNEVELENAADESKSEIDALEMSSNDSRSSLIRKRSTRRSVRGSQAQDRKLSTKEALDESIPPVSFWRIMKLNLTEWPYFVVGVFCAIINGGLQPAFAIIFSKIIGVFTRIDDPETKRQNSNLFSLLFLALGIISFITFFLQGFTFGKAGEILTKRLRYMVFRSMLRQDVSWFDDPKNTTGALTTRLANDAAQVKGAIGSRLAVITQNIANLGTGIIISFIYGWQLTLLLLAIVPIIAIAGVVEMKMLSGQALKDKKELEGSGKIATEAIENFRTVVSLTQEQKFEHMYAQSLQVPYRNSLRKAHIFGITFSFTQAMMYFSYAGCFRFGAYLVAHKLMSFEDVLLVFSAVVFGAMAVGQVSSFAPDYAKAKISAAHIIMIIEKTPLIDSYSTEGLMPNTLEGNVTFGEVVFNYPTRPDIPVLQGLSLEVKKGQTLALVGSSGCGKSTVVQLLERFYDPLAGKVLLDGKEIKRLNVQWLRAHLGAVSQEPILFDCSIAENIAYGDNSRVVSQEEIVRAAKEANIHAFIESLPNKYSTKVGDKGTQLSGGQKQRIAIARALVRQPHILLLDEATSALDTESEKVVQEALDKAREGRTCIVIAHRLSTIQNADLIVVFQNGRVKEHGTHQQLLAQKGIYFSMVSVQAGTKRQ
T5 sequence (P08183 whole entry Q1193C): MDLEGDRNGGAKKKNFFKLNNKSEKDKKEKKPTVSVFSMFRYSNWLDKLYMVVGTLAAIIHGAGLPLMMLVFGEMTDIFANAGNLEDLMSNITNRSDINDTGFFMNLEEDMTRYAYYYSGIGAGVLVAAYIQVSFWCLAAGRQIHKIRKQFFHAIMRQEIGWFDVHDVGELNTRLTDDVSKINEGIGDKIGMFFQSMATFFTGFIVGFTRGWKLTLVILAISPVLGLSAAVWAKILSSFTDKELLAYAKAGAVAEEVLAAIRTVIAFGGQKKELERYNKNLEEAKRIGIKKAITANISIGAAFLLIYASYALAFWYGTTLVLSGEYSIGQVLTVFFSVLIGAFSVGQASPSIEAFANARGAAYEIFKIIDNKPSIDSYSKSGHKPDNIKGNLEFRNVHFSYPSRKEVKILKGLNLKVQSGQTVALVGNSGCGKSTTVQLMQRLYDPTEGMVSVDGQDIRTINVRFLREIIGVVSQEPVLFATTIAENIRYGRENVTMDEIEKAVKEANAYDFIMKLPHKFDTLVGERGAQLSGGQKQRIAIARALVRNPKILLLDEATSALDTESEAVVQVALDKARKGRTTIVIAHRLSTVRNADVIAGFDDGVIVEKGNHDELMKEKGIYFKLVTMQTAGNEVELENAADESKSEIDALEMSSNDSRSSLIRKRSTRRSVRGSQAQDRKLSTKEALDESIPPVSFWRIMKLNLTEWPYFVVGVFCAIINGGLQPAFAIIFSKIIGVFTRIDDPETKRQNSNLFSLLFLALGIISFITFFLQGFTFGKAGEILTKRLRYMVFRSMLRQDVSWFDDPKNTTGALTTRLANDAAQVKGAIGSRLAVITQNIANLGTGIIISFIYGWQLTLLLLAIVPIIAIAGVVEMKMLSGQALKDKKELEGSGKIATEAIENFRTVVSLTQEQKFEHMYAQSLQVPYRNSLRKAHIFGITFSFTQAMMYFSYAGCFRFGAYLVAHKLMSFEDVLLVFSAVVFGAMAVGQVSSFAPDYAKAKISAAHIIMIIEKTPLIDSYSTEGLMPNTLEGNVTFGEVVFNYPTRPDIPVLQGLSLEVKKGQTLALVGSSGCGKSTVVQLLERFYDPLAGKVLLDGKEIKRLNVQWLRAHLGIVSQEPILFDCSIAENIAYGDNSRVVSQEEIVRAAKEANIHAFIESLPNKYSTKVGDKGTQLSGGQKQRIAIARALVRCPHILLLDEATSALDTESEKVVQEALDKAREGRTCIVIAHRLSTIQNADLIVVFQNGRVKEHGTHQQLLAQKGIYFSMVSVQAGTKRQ

With `O=c1cc(-c2ccc(OCCOCCNCc3ccccc3)cc2)oc2ccccc12` the Activity [1] was 0.58 pmol/min/µg, the Activity [2] was 89.7% and the Activity [3] was 102.4%. The Activity [4] was 85.4%, the Activity [5] was 102.5% and the Activity [6] was 94.1%. For the same molecule, the “fold change (FC)” value [7] was 1, the Activity [8] was 91.9% and the “fold change (FC)” value [9] was 56.8. The Activity [10] was 83.9%, the Activity [11] was 99% and the Activity [12] was 98.9%. For the same molecule, the Activity [13] was 81.4%, the “fold change (FC)” value [14] was 1.5 and the Activity [15] was 0.57 pmol/min/µg. For the same molecule, the “fold change (FC)” value [16] was 1, the “fold change (FC)” value [17] was 1.5 and the Activity [18] was 87.8%. The Activity [19] was 85.8% and the “fold change (FC)” value [20] was 1.1.
